{"source": "patent US9487479B2", "about": "“Small molecule inhibitors of N-terminus activation of the androgen receptor” (The University of British Columbia, priority 2008, dated 2016)", "key": {"[1]": {"target": "T1, glucocorticoid receptor (GR) (Homo sapiens, UniProt P04150)", "T1 construct": "Cells were co-transfected with expression plasmids for full-length hGR and PRβ; expressed in transfected cells; host or cells: LNCaP cells", "T1 sequence (P04150 1-777)": "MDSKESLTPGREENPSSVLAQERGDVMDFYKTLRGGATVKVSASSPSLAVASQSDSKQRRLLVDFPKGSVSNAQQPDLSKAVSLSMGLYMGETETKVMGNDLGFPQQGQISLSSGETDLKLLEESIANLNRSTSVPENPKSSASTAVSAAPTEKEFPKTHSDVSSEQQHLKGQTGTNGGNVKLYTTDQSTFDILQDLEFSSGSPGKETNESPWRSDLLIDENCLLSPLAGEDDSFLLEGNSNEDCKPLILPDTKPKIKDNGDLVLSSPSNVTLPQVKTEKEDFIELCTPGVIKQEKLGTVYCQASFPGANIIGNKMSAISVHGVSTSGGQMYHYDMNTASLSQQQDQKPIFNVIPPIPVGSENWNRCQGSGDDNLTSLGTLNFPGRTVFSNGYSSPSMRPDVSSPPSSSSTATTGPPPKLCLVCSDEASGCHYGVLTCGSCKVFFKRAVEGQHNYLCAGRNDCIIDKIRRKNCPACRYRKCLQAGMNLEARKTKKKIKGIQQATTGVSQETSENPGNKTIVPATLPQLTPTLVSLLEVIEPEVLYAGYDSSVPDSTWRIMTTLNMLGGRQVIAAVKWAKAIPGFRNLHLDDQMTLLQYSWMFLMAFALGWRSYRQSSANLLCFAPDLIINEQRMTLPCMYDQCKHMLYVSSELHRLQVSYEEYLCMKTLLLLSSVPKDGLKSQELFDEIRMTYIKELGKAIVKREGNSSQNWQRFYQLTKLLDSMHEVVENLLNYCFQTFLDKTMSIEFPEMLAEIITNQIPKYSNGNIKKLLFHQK", "experiment": "GRE-luciferase reporter assay in LNCaP cells transfected with hGR", "assay_type": "cell-based", "details": "5 μg/ml, dexamethasone 10 nM, 24 h", "excerpt": "White bars represent no steroid (ethanol control). Wherein glucocorticoid receptor (GR) and progesterone receptor (PR).\nSequence similarities of amino acids in the AR with related human steroid receptors (glucocorticoid receptor (GR) and progesterone receptor (PR)) are significant in some domains such as the DNA-binding-domain (DBD). Although the AR-NTD shares less than 15% homology with the PR and GR, these receptors do interact with some of the same proteins such as SRC-1 (steroid receptor coactivator-1). Therefore, reporter gene assays were used to determine if candidate compounds that block AR activity have any effect on GR and PR transcriptional activity. Cells were co-transfected with expression plasmids for full-length hGR and PRβ and the relative reporter (i.e., pGR-Luc or PRE-E1b-Luc reporters). Cells were then treated with ethanol vehicle, dexamethasone (GR), 4-pregnene-3,20 dione (progesterone) (PR) followed by measurement of luciferase activity."}, "PC3 cells": {"system": "PC3 cells", "experiment": "Proliferation of PC3 cells (BrdU incorporation)", "assay_type": "cell-based, human", "details": "5 μg/mL", "excerpt": "LNCaP cells were employed initially for all experiments because they are well-differentiated human prostate cancer cells in which ligand-independent activation of the AR by FSK has been characterized (Nazareth et al 1996 J. Biol. Chem. 271, 19900-19907; and Sadar 1999 J. Biol. Chem. 274, 7777-7783). LNCaP cells express endogenous AR and secrete prostate-specific antigen (PSA) (Horoszewicz et al 1983 Cancer Res. 43, 1809-1818). LNCaP cells can be grown either as monolayers in cell culture or as tumors in the well-characterized xenograft model that progresses to androgen independence in castrated hosts (Sato et al 1996 J. Steroid Biochem. Mol. Biol. 58, 139-146; Gleave et al 1991 Cancer Res. 51, 3753-3761; Sato et al 1997 Cancer Res. 57, 1584-1589; and Sadar et al 2002 Mol. Cancer Ther. 1(8), 629-637). […] Small molecules that specifically target the AR-NTD should have no effect on PC3 cells. This means that they should not alter the proliferation of PC3 cells if they specifically block the AR to mediate their inhibitory effects. R1881 was employed since it is stable and avoids problems associated with the labile physiological ligand dihydrotestosterone (DHT). Reporter specificity may be determined using several alternative reporter gene constructs. […]\nBrdU incorporation was measured 3 days later to indicate changes in proliferation in response to androgen (see FIG. 3B)."}}, "data": [{"compound": "CCC(=O)N[C@H](C[C@H](C)C(Cl)(Cl)Cl)C(=O)N1C(=O)C=C(OC)[C@@H]1C[C@H](C)C(Cl)Cl", "note": "[CB3.1, Sintokamide A]", "values": [{"measurement": "GRE-luciferase activity in response to ligand", "setting": "[1]", "result": "did not inhibit"}, {"measurement": "proliferation of PC3 cells (BrdU incorporation)", "setting": "PC3 cells", "result": "did not block proliferation"}]}]}
